ChEMBL document CHEMBL1125463, “Inhibition of N8-acetylspermidine deacetylase by active-site-directed metal coordinating inhibitors” (J Med Chem, 1992)
pKi: −log10 of the molar value.

How the values were obtained:
[1] = In vitro inhibition of N8-Acetylspermidine deacetylase from rat liver cytosol(apparent Ki); settings: for pKi: read-out: Ki app
[2] = (§1) In vitro inhibition of N8-Acetylspermidine deacetylase from rat liver cytosol; settings: read-out: Ki app
[3] = In vitro inhibition of N8-Acetylspermidine deacetylase from rat liver cytosol(apparent Ki); Ni means no inhibition
Rattus norvegicus = organism: Rattus norvegicus; test: as §1

Row | Compound | pKi [1] | further results
1 | NCCCCC(=O)O [5-AMINOVALERIC ACID] | 2.39 | 
2 | CCN1C(=O)C=CC1=O [N-ETHYLMALEIMIDE] | 3.07 | 
3 | Para-Hydroxymercuribenzoic acid | 3.82 | 
4 | NCCCNCCCCCC(=O)O |  | pKi [2]: 4.96
5 | c1cnc2c(c1)ccc1cccnc12 [PHENANTHROLINE] | 2.89 | 
6 | NCCCCCC(=O)O [AMINOCAPROIC ACID] | 4.30 | 
7 | NC(=O)CI [IODOACETAMIDE] |  | Ki app [3]: Not Active
8 | CC(=O)NCCCCNCCCN |  | Km (Rattus norvegicus): 11 µM
9 | O=C(O)CN(CCN(CC(=O)O)CC(=O)O)CC(=O)O [EDETIC ACID] |  | pKi [2]: 2.46
10 | c1cnc2ccc3ncccc3c2c1 |  | Ki app [1]: No inhibition
11 | CC(=O)NCCCCN | 3.10 | 
12 | CCCC(=O)[O-].[Na+] [SODIUM BUTYRATE] | 1.41 | 
13 | c1ccc(-c2ccccn2)nc1 [DIPYRIDYL] |  | pKi [2]: 2.72
14 | NCCCNCCCCCC(=O)NO | 9.00 | 
